Results reported in US12491226B2, “Mastic-derived natural protectants” (BARENTZ NORTH AMERICA, LLC, priority 2018, dated 2025).

Legend:
[1] = tested on: mixture of fungi (C. albicans (ATCC #10231) and A. brasiliensis (ATCC #16404)); assay: CTFA Preservative Challenge Test on shampoo, mixed fungi; assay type: cell-based; details: for Mixed Fungi Day 7 Count: shampoo containing sample, initial count 7.9×10^5 cfu/mL, surviving organisms on day 7; for Mixed Fungi Day 7 kill reduction: shampoo, versus initial count 7.9×10^5 cfu/mL
Experimental: (§1) The CTFA Preservative Challenge Test was performed on a shampoo containing the samples below against a mixture of fungi (C. albicans (ATCC #10231) and A. brasiliensis (ATCC #16404)) having an initial count of 7.9×10^5 cfu/mL or a mixture of bacteria having an initial count of 4×10^6 cfu/mL. The shampoos inoculated with bacteria were allowed to stand for 14 days and the shampoos inoculated with fungi were allowed to stand for 7 days. The samples were evaluated for surviving organisms on day 7 for fungi-innoculated shampoos and days 7 and 14 for bacteria-innoculated shampoos.

mixture of bacteria = assay: CTFA Preservative Challenge Test on shampoo, mixed bacteria (with Kull synergism calculation); assay type: cell-based; details: for Mixed Bacteria Day 7 Count / Mixed Bacteria Day 14 Count: shampoo containing sample, initial count 4×10^6 cfu/mL; for Mixed Bacteria Day 7 Count: surviving organisms on day 7; for Mixed Bacteria Day 14 Count: surviving organisms on day 14; for Mixed Bacteria Day 7 kill reduction / Mixed Bacteria Day 14 kill reduction: shampoo, versus initial count 4×10^6 cfu/mL
Experimental: as §1
From the table, synergism for the combinations above against mixed bacteria in shampoo was calculated by the method described in C. E. Kull et al., “Mixtures of Quaternary Ammonium Compounds and Long-chain Fatty Acids as Antifungal Agents”, Applied Microbiology, 9:538-541 (1961). The synergism value (QA/Qa+QB/Qb) was determined. […] Qa is the concentration of the first component alone (in percent by weight) required to yield 100% retardation of the bacteria. Qb is the concentration of the second component alone (in percent by weight) required to yield 100% retardation of the bacteria. When the value of (QA/Qa+QB/Qb) is less than one, the mixture is synergistic. Values for (QA/Qa+QB/Qb) of 1 and greater represent an additive effect and an antagonistic effect, respectively. Here, (QA/Qa+QB/Qb) is (([…])+([…]) or <0.75. Accordingly, the mixture of 0.2% mastic oil and 0.05% piroctine olamine is synergistic. The mixture of 2% mastic water and 2% ELA, the mixture of 2% mastic water and 0.5% sodium p-anisate, and the mixture of 4% mastic water and 1% quinic acid are also synergistic.

| SMILES | Mixed Fungi Day 7 Count [1] | Mixed Fungi Day 7 kill reduction [1] | Mixed Bacteria Day 7 Count (mixture of bacteria) | Mixed Bacteria Day 14 Count (mixture of bacteria) | Mixed Bacteria Day 7 kill reduction (mixture of bacteria) | Mixed Bacteria Day 14 kill reduction (mixture of bacteria) |
| --- | --- | --- | --- | --- | --- | --- |
| Cc1cc(CC(C)CC(C)(C)C)n(O)c(=O)c1.NCCO (stereo not drawn) [0.1% Piroctine olamine, Piroctine olamine] | 5.9 × 10^4 cfu/mL | (<90% kill | 1.2 × 10^5 cfu/mL | 1.3 × 10^5 cfu/mL | (<97% kill | (<97% kill |
| O=C(O)[C@]1(O)C[C@@H](O)[C@@H](O)[C@H](O)C1 [2.5% Quinic acid, quinic acid] | 1.4 × 10^5 cfu/mL | (<90% kill |  |  |  |  |
| COc1ccc(C(=O)[O-])cc1.[Na+] [1% Sodium p-anisate, sodium p-anisate] |  |  | 2.3 × 10^4 cfu/mL |  | (<99% kill |  |
| CCCCCCCCCCCC(=O)N[C@@H](CCCN=C(N)N)C(=O)OCC.Cl [5% ELA HCl, ethyl lauroyl arginate HCl] |  |  |  | 1.3 × 10^2 cfu/mL |  | (<99.9% kill |
